Paper PMC8666671, “Fine-tuning spermidine binding modes in the putrescine binding protein PotF” (The Journal of Biological Chemistry, 2021)
Numbering of substitutions follows the chain as printed. “And” between values parts separate entries of the source, which are not always exact repeats. Identical values can stand only once.

What was measured:
PotF/D = biological target: T1, PotF/D (Escherichia coli, UniProt P31133, A182D/D247S/D39E/F276W/L348Q/S38T/S87Y); test: ITC, PotF/D (PotF_SPD; seven PotD binding pocket residues grafted onto PotF); settings: 293 K
T1 construct: without the N-terminal signal peptide; made in house; host or cells: E. coli BL21 (DE3)
T1 sequence (P31133 27-370 S38T/D39E/S87Y/A182D/D247S/F276W/L348Q): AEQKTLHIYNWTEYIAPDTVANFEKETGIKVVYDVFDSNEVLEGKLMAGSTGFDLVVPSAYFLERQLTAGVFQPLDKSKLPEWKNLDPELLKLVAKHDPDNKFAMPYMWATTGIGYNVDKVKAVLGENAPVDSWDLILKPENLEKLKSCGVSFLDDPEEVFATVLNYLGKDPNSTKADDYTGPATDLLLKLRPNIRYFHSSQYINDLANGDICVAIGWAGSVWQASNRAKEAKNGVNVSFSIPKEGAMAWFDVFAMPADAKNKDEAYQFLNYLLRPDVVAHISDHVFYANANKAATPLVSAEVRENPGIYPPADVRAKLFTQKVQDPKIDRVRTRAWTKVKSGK
Procedure: (§1) Ligands were always freshly prepared in the exact same buffer as was used for the size exclusion run. Samples were degassed, and temperature was equilibrated using a degassing station (TA Instruments). About 400 μl protein sample of different concentrations (Table S5) depending on affinity was transferred into the sample cell of a nanoITC (TA Instruments), and 50 μl of about tenfold concentrated ligand solution was loaded into the injection needle. Multiple injection measurements were carried out at 293 K, 300 rpm stirring rate, and 250 s spacings between each 2 μl injection. The heat quantity past injection was determined by integration of the measured peaks. Every protein–ligand combination was measured as biological triplicate. Subtraction of heat of dilution measurements, peak integration, and one site binding fits were done with NanoAnalyze (TA Instruments). Reported errors are the errors between fits of the measured triplicates.

PotF/D–S247D = biological target: T2, PotF/D–S247D (Escherichia coli, UniProt P31133, A182D/D39E/F276W/L348Q/S38T/S87Y); test: ITC, PotF/D–S247D; format: binding; settings: 293 K
T2 construct: without the N-terminal signal peptide; made in house; host or cells: E. coli BL21 (DE3)
T2 sequence (P31133 27-370 S38T/D39E/S87Y/A182D/F276W/L348Q): T1 sequence (P31133 27-370 S38T/D39E/S87Y/A182D/D247S/F276W/L348Q) with S221D
Procedure: as §1

PotF/D–E39D–Y87S = biological target: T3, PotF/D–E39D–Y87S (Escherichia coli, UniProt P31133, A182D/D247S/F276W/L348Q/S38T); test: ITC, PotF/D–E39D–Y87S; format: binding; settings: 293 K
T3 construct: without the N-terminal signal peptide; made in house; host or cells: E. coli BL21 (DE3)
T3 sequence (P31133 27-370 S38T/A182D/D247S/F276W/L348Q): T1 sequence (P31133 27-370 S38T/D39E/S87Y/A182D/D247S/F276W/L348Q) with E13D, Y61S
Procedure: as §1

PotF/D–E39D–F88L = biological target: T4, PotF/D–E39D–F88L (Escherichia coli, UniProt P31133, A182D/D247S/F276W/F88L/L348Q/S38T/S87Y); test: ITC, PotF/D–E39D–F88L; format: binding; settings: 293 K
T4 construct: without the N-terminal signal peptide; made in house; host or cells: E. coli BL21 (DE3)
T4 sequence (P31133 27-370 S38T/S87Y/F88L/A182D/D247S/F276W/L348Q): T1 sequence (P31133 27-370 S38T/D39E/S87Y/A182D/D247S/F276W/L348Q) with E13D, F62L
Procedure: as §1

PotF_Prox = biological target: T5, PotF_Prox (Escherichia coli, UniProt P31133, D247S/D39E/S38T); test: ITC, PotF_Prox (S38T, D39E, D247S); format: binding; settings: 293 K, 50 mM Tris pH 8, 300 mM NaCl, biological triplicates
T5 construct: without the N-terminal signal peptide; made in house; host or cells: E. coli BL21 (DE3)
T5 sequence (P31133 27-370 S38T/D39E/D247S): T1 sequence (P31133 27-370 S38T/D39E/S87Y/A182D/D247S/F276W/L348Q) with Y61S, D156A, W250F, Q322L
Procedure: as §1

[1] = ITC, 50 mM Tris pH 8, 300 mM NaCl, biological triplicates

Which n (PotF/D; ITC binding stoichiometry) does the source give for NCCCCNCCCN [SPD, spermidine] here?
Its n is 0.94 ± 0.02.

What about the ΔG (PotF/D; ITC) of the same compound?
Its ΔG is -5.94 ± 0.04 kcal/mol.

What about the ΔH (PotF/D; ITC) of the same compound?
The ΔH was -9.30 ± 0.20 kcal/mol.

What about the “−TΔS” value (PotF/D; ITC) of the same compound?
The value was 3.36 ± 0.24 kcal/mol.

What about the Kd (PotF/D; [1]) of the same compound?
The Kd was ~37 µM and 37.3 µM.

What about the n (PotF/D–S247D; ITC binding stoichiometry) of the same compound?
The n was 0.94 ± 0.01.

And the ΔG (PotF/D–S247D; ITC)?
Its ΔG is -6.77 ± 0.18 kcal/mol.

What about the ΔH (PotF/D–S247D; ITC) of the same compound?
The ΔH was -6.76 ± 0.08 kcal/mol.

And the “−TΔS” value (PotF/D–S247D; ITC)?
The value was -0.01 ± 0.25 kcal/mol.

What about the Kd (PotF/D–S247D; [1]) of the same compound?
Its Kd is ~9.4 µM and 9.4 µM and 9.43 µM.

What about the n (PotF/D–E39D–Y87S; ITC binding stoichiometry) of the same compound?
The n was 0.98 ± 0.01.

What about the ΔG (PotF/D–E39D–Y87S; ITC) of the same compound?
The ΔG was -6.74 ± 0.06 kcal/mol.

What about the ΔH (PotF/D–E39D–Y87S; ITC) of the same compound?
Its ΔH is -6.56 ± 0.13 kcal/mol.

What about the “−TΔS” value (PotF/D–E39D–Y87S; ITC) of the same compound?
The value was -0.18 ± 0.19 kcal/mol.

What about the Kd (PotF/D–E39D–Y87S; [1]) of the same compound?
The Kd was 9.4 µM and 9.44 µM.

What about the n (PotF/D–E39D–F88L; ITC binding stoichiometry) of the same compound?
Its n is 1.03 ± 0.01.

What about the ΔG (PotF/D–E39D–F88L; ITC) of the same compound?
The ΔG was -6.71 ± 0.03 kcal/mol.

And the ΔH (PotF/D–E39D–F88L; ITC)?
The ΔH was -12.31 ± 0.11 kcal/mol.

What about the “−TΔS” value (PotF/D–E39D–F88L; ITC) of the same compound?
Its value is 5.60 ± 0.13 kcal/mol.

What about the Kd (PotF/D–E39D–F88L; [1]) of the same compound?
The Kd was ~9.9 µM and 9.9 µM.

For NCCCCN [PUT, putrescine], which KD (PotF_Prox) is on record?
The KD was “abolishes association”.
